In patent US12059425B2, “Heterocyclic compounds and uses thereof” (Kumquat Biosciences Inc., priority 2022, dated 2024):
Values belong to the compound of their own block, whether it stands above or below them.

How the values were obtained:
[1] = test system: SW620 cells; test: Ras cellular assay, cell proliferation SW620; type: cell-based; conditions: Homo sapiens, SW-620
Excerpt: (§1) For example, this assay can be also used to assess selective growth inhibition of a mutant Ras protein relative to a wildtype, or relative to a different mutant Ras protein.

[2] = test system: A549 cells; test: Ras cellular assay, cell proliferation A549; type: cell-based; conditions: Homo sapiens
Description: as §1
A549 (ATCC CRL-185) and LS123 (ATCC CRL-255) cell lines comprise a G12S mutation and can be used to assess Ras cellular signaling in vitro, e.g., in response to treatment with a compound described herein. A549 culture medium is prepared with RPMI-1640 and 10% heat-inactivated FBS. LS123 culture medium is prepared with RPMI-1640 and 10% heat-inactivated FBS. A CellTiter-Glo (CTG) luminescent based assay (Promega) is used to assess growth of the cells, as a measurement of the ability of the compounds herein to inhibit Ras signaling in the cells. The cells (e.g., 800 per well) are seeded in their respective culture medium in standard tissue culture-treated 384-well format plates (Falcon #08-772-116) or ultra-low attachment surface 384-well format plates (S-Bio #MS-9384WZ). The day after plating, cells are treated with a dilution series (e.g., a 10 point, 3-fold dilution series) of the compounds herein (e.g., approximately 40 μL final volume per well). Cell viability can be monitored (e.g., approximately 6 days later) according to the manufacturer's recommended instructions, where CellTiter-Glo reagent is added (e.g., approximately 10 μL), vigorously mixed, covered, and placed on a plate shaker (e.g., approximately for 20 min) to ensure sufficient cell lysis prior to assessment of luminescent signal. The IC50 values are determined using the four parameter fit. The resulting IC50 value is a measurement of the ability of the test compound to reduce cell growth of Ras-driven cells (e.g., tumor cell lines) in vitro and/or in vivo.

[3] = molecular target: T1, K-Ras G12D (Homo sapiens, UniProt P01116, G12D); test: PPI-HTRF assay, K-Ras G12D / SOS1 interaction; type: biochemical; conditions: HTRF, K-Ras G12D; read-out: PPI-HTRF-5 nM (K-Ras G12D IC50)
T1 construct: made in house; host or cells: E. coli, e.g. BL21 (DE3)
T1 sequence (P01116 1-188 isoform P01116-2 G12D): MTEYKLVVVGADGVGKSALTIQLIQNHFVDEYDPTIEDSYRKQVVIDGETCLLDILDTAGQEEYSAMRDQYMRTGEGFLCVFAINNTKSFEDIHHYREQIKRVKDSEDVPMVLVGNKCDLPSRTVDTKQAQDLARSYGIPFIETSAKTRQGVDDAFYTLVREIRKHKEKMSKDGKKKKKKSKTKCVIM
Summary of the method: (§2)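 Equilibrium interaction of GST-tagged human K-Ras (wildtype or G12D/G12V/G12S mutant) with His-tagged hSOS1. Detection uses anti-GST-Eu(K) and anti-6His-XL665 in HEPES pH 7.4 buffer. Signal is read ≥10 min after mixing and the ratiometric HTRF signal is fitted for IC50.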

[4] = molecular target: T2, K-Ras G12S (Homo sapiens, UniProt P01116, G12S); test: PPI-HTRF assay, K-Ras G12S / SOS1 interaction; type: biochemical; conditions: read-out: PPI-HTRF-5 nM (K-Ras G12S IC50)
T2 construct: made in house; host or cells: E. coli, e.g. BL21 (DE3)
T2 sequence (P01116 1-188 isoform P01116-2 G12S): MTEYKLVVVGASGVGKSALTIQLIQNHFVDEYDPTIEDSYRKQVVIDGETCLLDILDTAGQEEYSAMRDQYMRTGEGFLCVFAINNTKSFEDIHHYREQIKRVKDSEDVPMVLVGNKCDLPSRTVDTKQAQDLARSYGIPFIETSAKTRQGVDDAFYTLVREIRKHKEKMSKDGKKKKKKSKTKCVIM
Summary of the method: as §2

[5] = molecular target: T3, K-Ras G12V (Homo sapiens, UniProt P01116, G12V); test: PPI-HTRF assay, K-Ras G12V / SOS1 interaction; type: biochemical; conditions: HTRF, K-Ras G12V; read-out: PPI-HTRF-5 nM (K-Ras G12V IC50)
T3 construct: made in house; host or cells: E. coli, e.g. BL21 (DE3)
T3 sequence (P01116 1-188 isoform P01116-2 G12V): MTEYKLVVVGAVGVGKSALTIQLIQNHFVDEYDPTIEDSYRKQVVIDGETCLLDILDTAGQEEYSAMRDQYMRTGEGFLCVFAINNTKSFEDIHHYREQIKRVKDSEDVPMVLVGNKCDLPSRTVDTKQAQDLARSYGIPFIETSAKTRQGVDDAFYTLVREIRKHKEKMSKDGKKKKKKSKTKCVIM
Summary of the method: as §2

[6] = test system: GP2D cells; test: Ras cellular assay, cell proliferation GP2D; type: cell-based
Description: as §1
ASPC-1 (ATCC CRL-1682), Panc-10.05 (ATCC CRL-2547), A427, GP2d cell lines or any other cell lines comprising a G12D mutation can be used to assess Ras cellular signaling in vitro, e.g., in response to a compound described herein. For example, ASPC-1 culture medium is prepared with RPMI-1640 and 10% heat-inactivated FBS. Panc-10.05 culture medium is prepared with RPMI-1640, 10 Units/mL human recombinant insulin, and 10% FBS. A427 cell culture is prepared with RPMI-1640 and 10% heat-inactivated FBS. A CellTiter-Glo (CTG) luminescent based assay (Promega) is used to assess growth of the cells, as a measurement of the ability of the compounds herein to inhibit Ras signaling in the cells. The cells (e.g., 800 per well) are seeded in their respective culture medium in standard tissue culture-treated 384-well format plates (Falcon #08-772-116) or ultra-low attachment surface 384-well format plates (S-Bio #MS-9384UZ). The day after plating, cells are treated with a dilution series (e.g., a 9 point 3-fold dilution series) of the compounds herein (e.g., approximately 40 μL final volume per well). Cell viability can be monitored (e.g., approximately 5 days later) according to the manufacturer's recommended instructions, where the CellTiter-Glo reagent is added (e.g., approximately 10 μL), vigorously mixed, covered, and placed on a plate shaker (e.g., approximately for 20 min) to ensure sufficient cell lysis prior to assessment of luminescent signal. The IC50 values are determined using the four parameter fit. The resulting IC50 value is a measurement of the ability of the test compound to reduce cell growth of Ras-driven cells (e.g., tumor cell lines) in vitro and/or in vivo.

[7] = molecular target: T4, wildtype K-Ras (Homo sapiens, UniProt P01116); test: PPI-HTRF assay, wildtype K-Ras / SOS1 interaction; type: biochemical; conditions: HTRF, K-Ras wt; read-out: PPI-HTRF-5 nM (K-Ras wt IC50)
T4 construct: made in house; host or cells: E. coli, e.g. BL21 (DE3)
T4 sequence (P01116 1-188 isoform P01116-2): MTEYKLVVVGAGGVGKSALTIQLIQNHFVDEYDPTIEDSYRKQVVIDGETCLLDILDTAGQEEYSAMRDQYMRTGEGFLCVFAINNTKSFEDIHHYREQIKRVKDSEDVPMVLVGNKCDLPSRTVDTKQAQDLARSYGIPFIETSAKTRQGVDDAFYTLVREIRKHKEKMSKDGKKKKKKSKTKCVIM
Summary of the method: as §2

SMILES: N#Cc1c(N)sc2c(F)ccc(-c3c(Cl)c4c5c(nc(OCC67CCCN6C[C@H](F)C7)nc5c3F)N3CCC[C@H]3CO4)c12 (stereo partly drawn) [compound 159, 2-amino-4-((12aS)-10-chloro-8-fluoro-6-(((2R)-2-fluorotetrahydro-1H-pyrrolizin-7a(5H)-yl)methoxy)-2,3,12,12a-tetrahydro-1H-pyrrolo[2′,1′:3,4][1,4]oxazepino[5,6,7-de]quinazolin-9-yl)-7-fluorobenzo[b]thiophene-3-carbonitrile]
IC50 [1]: < 5 µM
IC50 [2]: < 5 µM
IC50 [3]: < 5 µM
IC50 [4]: < 5 µM
IC50 [5]: < 5 µM
IC50 [6]: < 5 µM
IC50 [7]: < 5 µM

SMILES: N#Cc1c(N)sc2c(F)ccc(-c3c(Cl)c4c5c(nc(OC[C@@]67CCCN6C[C@H](F)C7)nc5c3F)N3CC5(CCN5C(=O)n5cncn5)CC3CO4)c12 (stereo partly drawn) [compound 131, 2-Amino-4-(10′-chloro-8′-fluoro-6′-(((2R,7aS)-2-fluorotetrahydro-1H-pyrrolizin-7a(5H)-yl)methoxy)-1-(1H-1,2,4-triazole-1-carbonyl)-12′,12a′-dihydro-1′H,3′H-spiro[azetidine-2,2′-pyrrolo[2′,1′:3,4][1,4]oxazepino[5,6,7-de]quinazolin]-9′-yl)-7-fluorobenzo[b]thiophene-3-carbonitrile]
IC50 [1]: < 5 µM
IC50 [2]: < 5 µM
IC50 [4]: < 5 µM
IC50 [5]: < 5 µM
IC50 [7]: < 5 µM

SMILES: N#Cc1c(N)sc2c(F)ccc(-c3c(Cl)c4c5c(nc(OC[C@@]67CCCN6C[C@H](F)C7)nc5c3F)N3CCC[C@@H]3CCO4)c12 [compound 143, 2-amino-4-((13aR)-10-chloro-8-fluoro-6-(((2R,7aS)-2-fluorotetrahydro-1H-pyrrolizin-7a(5H)-yl)methoxy)-1,2,3,12,13,13a-hexahydropyrrolo[1′,2′:5,6][1,5]oxazocino [4,3,2-de]quinazolin-9-yl)-7-fluorobenzo[b]thiophene-3-carbonitrile]
IC50 [1]: < 5 µM
IC50 [2]: < 5 µM
IC50 [3]: < 5 µM
IC50 [4]: < 5 µM
IC50 [5]: < 5 µM
IC50 [7]: < 5 µM

SMILES: N#Cc1c(N)sc2c(F)ccc(-c3c(Cl)c4c5c(nc(OC[C@@]67CCCN6C[C@H](F)C7)nc5c3F)N3CCC[C@@H]3CC(CO)O4)c12 (single isomer, unassigned) [compound 177]
IC50 [1]: < 5 µM
IC50 [3]: < 5 µM
IC50 [4]: < 5 µM
IC50 [5]: < 5 µM
IC50 [6]: < 5 µM
IC50 [7]: < 5 µM

SMILES: N#Cc1c(N)sc2c(F)ccc(-c3c(Cl)c4c5c(nc(OC[C@@]67CCCN6C[C@H](F)C7)nc5c3F)N3CCC(C#N)CC3CO4)c12 (single isomer, unassigned) [compound 105]
IC50 [1]: < 5 µM
IC50 [2]: < 5 µM
IC50 [4]: < 5 µM
IC50 [5]: < 5 µM
IC50 [7]: < 5 µM

SMILES: N#Cc1c(N)sc2c(F)ccc(-c3c(Cl)c4c5c(nc(OCC67CCCN6C[C@H](F)C7)nc5c3F)N3CCCCC3CCO4)c12 (single isomer, unassigned) [compound 117]
IC50 [1]: < 5 µM
IC50 [2]: < 5 µM
IC50 [4]: < 5 µM
IC50 [5]: < 5 µM
IC50 [7]: < 5 µM

SMILES: N#Cc1c(N)sc2c(F)ccc(-c3c(Cl)c4c5c(nc(OC[C@@]67CCCN6C[C@H](F)C7)nc5c3F)N3C[C@H](O)C[C@@H]3CCO4)c12 [compound 164, 2-amino-4-((2R,13aS)-10-chloro-8-fluoro-6-(((2R,7aS)-2-fluorotetrahydro-1H-pyrrolizin-7a(5H)-yl)methoxy)-2-hydroxy-1,2,3,12,13,13a-hexahydropyrrolo[1′,2′:5,6][1,5]oxazocino [4,3,2-de]quinazolin-9-yl)-7-fluorobenzo[b]thiophene-3-carbonitrile]
IC50 [1]: < 5 µM
IC50 [3]: < 5 µM
IC50 [4]: < 5 µM
IC50 [5]: < 5 µM
IC50 [6]: < 5 µM
IC50 [7]: < 5 µM

Further lines, with some results ahead:

IC50 [1]: < 5 µM
IC50 [2]: < 5 µM
IC50 [3]: < 5 µM
IC50 [4]: < 5 µM
IC50 [5]: < 5 µM
IC50 [7]: < 5 µM
SMILES: N#CCC1CCN2c3nc(OC[C@@]45CCCN4C[C@H](F)C5)nc4c(F)c(-c5ccc(F)c6sc(N)c(C#N)c56)c(Cl)c(c34)OCC2C1 (single isomer, unassigned) [compound 156]

IC50 [1]: < 5 µM
IC50 [2]: > 5 µM
IC50 [4]: < 5 µM
IC50 [5]: < 5 µM
IC50 [7]: < 5 µM
SMILES: CN1c2nc(OC[C@@]34CCCN3C[C@H](F)C4)nc3c(F)c(-c4ccc(F)c5sc(N)c(C#N)c45)c(Cl)c(c23)OCC2CCCC21 (stereo partly drawn) [compound 110, 2-amino-4-(6-chloro-4-fluoro-2-(((2R,7aS)-2-fluorotetrahydro-1H-pyrrolizin-7a(5H)-yl)methoxy)-12-methyl-8a,9,10,11,11a,12-hexahydro-8H-cyclopenta[6,7][1,5]oxazocino[4,3,2-de]quinazolin-5-yl)-7-fluorobenzo[b]thiophene-3-carbonitrile]
IC50 [6]: > 5 µM

IC50 [1]: < 5 µM
IC50 [3]: < 5 µM
IC50 [4]: < 5 µM
IC50 [5]: < 5 µM
IC50 [7]: < 5 µM
SMILES: N#CCCN1c2nc(OC[C@@]34CCCN3C[C@H](F)C4)nc3c(F)c(-c4ccc(F)c5sc(N)c(C#N)c45)c(Cl)c(c23)OCC2COCC21 (stereo partly drawn) [compound 197, 2-amino-4-(6-chloro-12-(2-cyanoethyl)-4-fluoro-2-(((2R,7aS)-2-fluorotetrahydro-1H-pyrrolizin-7a(5H)-yl)methoxy)-8a,9,11a,12-tetrahydro-8H,11H-furo[3′,4′:6,7][1,5]oxazocino[4,3,2-de]quinazolin-5-yl)-7-fluorobenzo[b]thiophene-3-carbonitrile]
IC50 [6]: < 5 µM

IC50 [1]: < 5 µM
IC50 [3]: < 5 µM
IC50 [4]: < 5 µM
IC50 [5]: < 5 µM
IC50 [7]: < 5 µM
SMILES: CN(C)CCCN1c2nc(OC[C@@]34CCCN3C[C@H](F)C4)nc3c(F)c(-c4ccc(F)c5sc(N)c(C#N)c45)c(Cl)c(c23)OCC2COCC21 (stereo partly drawn) [compound 209, 2-amino-4-(6-chloro-12-(3-(dimethylamino)propyl)-4-fluoro-2-(((2R,7aS)-2-fluorotetrahydro-1H-pyrrolizin-7a(5H)-yl)methoxy)-8a,9,11a,12-tetrahydro-8H,11H-furo[3′,4′:6,7][1,5]oxazocino[4,3,2-de]quinazolin-5-yl)-7-fluorobenzo[b]thiophene-3-carbonitrile]
IC50 [6]: < 5 µM

IC50 [1]: < 5 µM
IC50 [3]: < 5 µM
IC50 [4]: < 5 µM
IC50 [5]: < 5 µM
IC50 [7]: < 5 µM
SMILES: CN1c2nc(OC[C@@]34CCCN3C[C@H](F)C4)nc3c(F)c(-c4ccc(F)c5sc(N)c(C#N)c45)c(Cl)c(c23)OCC2CCC21 (stereo partly drawn) [compound 187, 2-amino-4-(6-chloro-4-fluoro-2-(((2R,7aS)-2-fluorotetrahydro-1H-pyrrolizin-7a(5H)-yl)methoxy)-11-methyl-8,8a,9,10,10a,11-hexahydrocyclobuta[6,7][1,5]oxazocino [4,3,2-de]quinazolin-5-yl)-7-fluorobenzo[b]thiophene-3-carbonitrile]
IC50 [6]: < 5 µM
